Experimental data published in ChEMBL document CHEMBL1649524, “Resistance selection studies comparing the activity of razupenem (PTZ601) to vancomycin and linezolid against eight methicillin-resistant and two methicillin-susceptible Staphylococcus aureus strains” (2009).

What was measured:
Type in all cases: functional
Staphylococcus aureus [1] = assay: Antimicrobial activity against vancomycin-intermediate Staphylococcus aureus 1287 measured on day 20 by macrodilution method; settings: Staphylococcus aureus, 1287, 480 h
Staphylococcus aureus [2] = assay: Antimicrobial activity against vancomycin-intermediate Staphylococcus aureus 555 measured on day 45 by macrodilution method
Staphylococcus aureus [3] = assay: Antimicrobial activity against methicillin-susceptible Staphylococcus aureus 543 measured on day 50 by macrodilution method
Staphylococcus aureus [4] = assay: Antimicrobial activity against vancomycin-intermediate Staphylococcus aureus 555 measured on day 20 by macrodilution method; settings: Staphylococcus aureus, 555, 480 h
Staphylococcus aureus [5] = assay: Antimicrobial activity against vancomycin-intermediate Staphylococcus aureus 1287 measured on day 30 by macrodilution method
Staphylococcus aureus [6] = assay: Antimicrobial activity against vancomycin-intermediate Staphylococcus aureus 555 measured on day 40 by macrodilution method
Staphylococcus aureus [7] = assay: Antimicrobial activity against methicillin-susceptible Staphylococcus aureus 543 by macrodilution method
Staphylococcus aureus [8] = assay: Antimicrobial activity against vancomycin-resistant Staphylococcus aureus 509 measured on day 10 by macrodilution method; settings: Staphylococcus aureus, 509, 240 h
Staphylococcus aureus [9] = assay: Antimicrobial activity against vancomycin-resistant Staphylococcus aureus 509 measured on day 30 by macrodilution method
Staphylococcus aureus [10] = assay: Antimicrobial activity against methicillin-susceptible Staphylococcus aureus 543 measured after 10 antibiotic-free subculturing by macrodilution method
Staphylococcus aureus [11] = assay: Antimicrobial activity against methicillin-resistant Staphylococcus aureus 547 after 23 passages by macrodilution method
Staphylococcus aureus [12] = assay: Antimicrobial activity against methicillin-resistant Staphylococcus aureus 525 measured on day 40 by macrodilution method
Staphylococcus aureus [13] = assay: Antimicrobial activity against heterogeneous vancomycin-intermediate Staphylococcus aureus 873 measured on day 5 by macrodilution method; settings: Staphylococcus aureus, 873, 120 h
Staphylococcus aureus [14] = assay: Antimicrobial activity against vancomycin-intermediate Staphylococcus aureus 1287 after 18 passages by macrodilution method
Staphylococcus aureus [15] = assay: Antimicrobial activity against methicillin-susceptible Staphylococcus aureus 540 measured on day 40 by macrodilution method
Staphylococcus aureus [16] = assay: Antimicrobial activity against methicillin-resistant Staphylococcus aureus 547 measured on day 20 by macrodilution method; settings: Staphylococcus aureus, 547, 480 h
Staphylococcus aureus [17] = assay: Antimicrobial activity against vancomycin-intermediate Staphylococcus aureus 555 measured on day 5 by macrodilution method; settings: Staphylococcus aureus, 555, 120 h
Staphylococcus aureus [18] = assay: Antimicrobial activity against methicillin-resistant Staphylococcus aureus 547 measured on day 5 by macrodilution method; settings: Staphylococcus aureus, 547, 120 h
Staphylococcus aureus [19] = assay: Antimicrobial activity against vancomycin-intermediate Staphylococcus aureus 1287 measured on day 40 by macrodilution method
Staphylococcus aureus [20] = assay: Antimicrobial activity against methicillin-susceptible Staphylococcus aureus 540 measured after 10 antibiotic-free subculturing by macrodilution method
Staphylococcus aureus [21] = assay: Antimicrobial activity against methicillin-susceptible Staphylococcus aureus 540 by macrodilution method
Staphylococcus aureus [22] = assay: Antimicrobial activity against vancomycin-resistant Staphylococcus aureus 509 measured on day 20 by macrodilution method; settings: Staphylococcus aureus, 509, 480 h
Staphylococcus aureus [23] = assay: Antimicrobial activity against methicillin-susceptible Staphylococcus aureus 540 after 49 passages by macrodilution method
Staphylococcus aureus [24] = assay: Antimicrobial activity against vancomycin-intermediate Staphylococcus aureus 1287 measured on day 15 by macrodilution method; settings: Staphylococcus aureus, 1287, 360 h
Staphylococcus aureus [25] = assay: Antimicrobial activity against vancomycin-intermediate Staphylococcus aureus 555 measured after 10 antibiotic-free subculturing by macrodilution method
Staphylococcus aureus [26] = assay: Antimicrobial activity against methicillin-susceptible Staphylococcus aureus 540 measured on day 15 by macrodilution method; settings: Staphylococcus aureus, 540, 360 h
Staphylococcus aureus [27] = assay: Antimicrobial activity against heterogeneous vancomycin-intermediate Staphylococcus aureus 873 measured on day 10 by macrodilution method; settings: Staphylococcus aureus, 873, 240 h
Staphylococcus aureus [28] = assay: Antimicrobial activity against methicillin-susceptible Staphylococcus aureus 540 measured on day 20 by macrodilution method; settings: Staphylococcus aureus, 540, 480 h
Staphylococcus aureus [29] = assay: Antimicrobial activity against heterogeneous vancomycin-intermediate Staphylococcus aureus 873 measured on day 25 by macrodilution method; settings: Staphylococcus aureus, 873, 600 h
Staphylococcus aureus [30] = assay: Antimicrobial activity against heterogeneous vancomycin-intermediate Staphylococcus aureus 168 measured on day 20 by macrodilution method; settings: Staphylococcus aureus, 168, 480 h
Staphylococcus aureus [31] = assay: Antimicrobial activity against vancomycin-resistant Staphylococcus aureus 510 after 50 passages by macrodilution method
Staphylococcus aureus [32] = assay: Antimicrobial activity against vancomycin-resistant Staphylococcus aureus 510 measured on day 20 by macrodilution method; settings: Staphylococcus aureus, 510, 480 h
Staphylococcus aureus [33] = assay: Antimicrobial activity against heterogeneous vancomycin-intermediate Staphylococcus aureus 873 measured on day 15 by macrodilution method; settings: Staphylococcus aureus, 873, 360 h
Staphylococcus aureus [34] = assay: Antimicrobial activity against heterogeneous vancomycin-intermediate Staphylococcus aureus 873 measured on day 50 by macrodilution method
Staphylococcus aureus [35] = assay: Antimicrobial activity against methicillin-resistant Staphylococcus aureus 525 measured on day 45 by macrodilution method
Staphylococcus aureus [36] = assay: Antimicrobial activity against vancomycin-resistant Staphylococcus aureus 509 by macrodilution method
Staphylococcus aureus [37] = assay: Antimicrobial activity against methicillin-resistant Staphylococcus aureus 525 measured on day 20 by macrodilution method; settings: Staphylococcus aureus, 525, 480 h
Staphylococcus aureus [38] = assay: Antimicrobial activity against methicillin-resistant Staphylococcus aureus 525 measured on day 25 by macrodilution method; settings: Staphylococcus aureus, 525, 600 h
Staphylococcus aureus [39] = assay: Antimicrobial activity against heterogeneous vancomycin-intermediate Staphylococcus aureus 873 measured on day 20 by macrodilution method; settings: Staphylococcus aureus, 873, 480 h
Staphylococcus aureus [40] = assay: Antimicrobial activity against heterogeneous vancomycin-intermediate Staphylococcus aureus 168 measured on day 45 by macrodilution method
Staphylococcus aureus [41] = assay: Antimicrobial activity against heterogeneous vancomycin-intermediate Staphylococcus aureus 873 measured after 10 antibiotic-free subculturing by macrodilution method
Staphylococcus aureus [42] = assay: Antimicrobial activity against heterogeneous vancomycin-intermediate Staphylococcus aureus 873 measured on day 30 by macrodilution method
Staphylococcus aureus [43] = assay: Antimicrobial activity against vancomycin-resistant Staphylococcus aureus 509 measured on day 25 by macrodilution method; settings: Staphylococcus aureus, 509, 600 h
Staphylococcus aureus [44] = assay: Antimicrobial activity against methicillin-resistant Staphylococcus aureus 547 by macrodilution method
Staphylococcus aureus [45] = assay: Antimicrobial activity against methicillin-susceptible Staphylococcus aureus 540 measured on day 25 by macrodilution method; settings: Staphylococcus aureus, 540, 600 h
Staphylococcus aureus [46] = assay: Antimicrobial activity against vancomycin-resistant Staphylococcus aureus 509 measured on day 15 by macrodilution method; settings: Staphylococcus aureus, 509, 360 h
Staphylococcus aureus [47] = assay: Antimicrobial activity against vancomycin-resistant Staphylococcus aureus 509 measured on day 50 by macrodilution method
Staphylococcus aureus [48] = assay: Antimicrobial activity against heterogeneous vancomycin-intermediate Staphylococcus aureus 168 measured on day 50 by macrodilution method
Staphylococcus aureus [49] = assay: Antimicrobial activity against vancomycin-intermediate Staphylococcus aureus 555 measured on day 30 by macrodilution method
Staphylococcus aureus [50] = assay: Antimicrobial activity against methicillin-susceptible Staphylococcus aureus 543 measured on day 20 by macrodilution method; settings: Staphylococcus aureus, 543, 480 h

Measured: MIC

C[C@H]1C=C(c2csc(SC3=C(C(=O)O)N4C(=O)[C@H]([C@@H](C)O)[C@H]4[C@H]3C)n2)CN1 [RAZUPENEM]
16 µg/mL: Staphylococcus aureus [5] | Staphylococcus aureus [12] | Staphylococcus aureus [34]
0.25 µg/mL: Staphylococcus aureus [24]
0.125 µg/mL: Staphylococcus aureus [23]
2 µg/mL: Staphylococcus aureus [4] | Staphylococcus aureus [8] | Staphylococcus aureus [13] | Staphylococcus aureus [19] | Staphylococcus aureus [25] | Staphylococcus aureus [27] | Staphylococcus aureus [33] | Staphylococcus aureus [36] | Staphylococcus aureus [46]
0.06 µg/mL: Staphylococcus aureus [3] | Staphylococcus aureus [15]
8 µg/mL: Staphylococcus aureus [2] | Staphylococcus aureus [29] | Staphylococcus aureus [30] | Staphylococcus aureus [40] | Staphylococcus aureus [41] | Staphylococcus aureus [42] | Staphylococcus aureus [48] | Staphylococcus aureus [49]
32 µg/mL: Staphylococcus aureus [35]
0.03 µg/mL: Staphylococcus aureus [26] | Staphylococcus aureus [28] | Staphylococcus aureus [45] | Staphylococcus aureus [50]
1 µg/mL: Staphylococcus aureus [17]
0.5 µg/mL: Staphylococcus aureus [1] | Staphylococcus aureus [14] | Staphylococcus aureus [18] | Staphylococcus aureus [44]
0.016 µg/mL: Staphylococcus aureus [7] | Staphylococcus aureus [10] | Staphylococcus aureus [20] | Staphylococcus aureus [21]
4 µg/mL: all other assays above
